Data published in patent US9018224B2, “Substituted cyclopropyl compounds useful as GPR119 agonists” (Merck Sharp & Dohme Corp., priority 2011, dated 2015).

Each compound was assayed against T1, human GPR119 (Homo sapiens, UniProt Q8TDV5) (assay: Measurement of GPR119 signaling by cAMP (LANCE cAMP kit or HTRF) in HEK293 cells transfected with human GPR119). Conditions: agonist cAMP response in HEK293 cells stably transfected with human GPR119; patent does not say which of the two cAMP formats (LANCE or HTRF).
T1 sequence (Q8TDV5 1-308 limits assumed): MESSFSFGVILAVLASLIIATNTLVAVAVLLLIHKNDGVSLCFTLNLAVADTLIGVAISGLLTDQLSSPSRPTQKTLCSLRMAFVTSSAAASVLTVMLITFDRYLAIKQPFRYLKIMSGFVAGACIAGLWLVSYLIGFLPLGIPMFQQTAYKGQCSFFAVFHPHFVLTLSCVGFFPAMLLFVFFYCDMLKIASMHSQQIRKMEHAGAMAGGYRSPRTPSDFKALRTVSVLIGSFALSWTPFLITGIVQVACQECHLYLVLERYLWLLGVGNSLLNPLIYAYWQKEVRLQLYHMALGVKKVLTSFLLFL
Format: cell-based
Protocol: Measurement of GPR119 Signaling Using LANCE 384-Well cAMP Kit
The adenylate cyclase assay was constructed following the LANCE™ cAMP Kit (Perkin Elmer, AD0264) instructions. […] The reaction was stopped by incubating with the supplied detection buffer containing the europium chelate of the Eu-SA/Biotin-cAMP tracer for 3 hours. The assay was performed in duplicate in a 384 well plate for duplicate plates. […] Basal activity was determined using a DMSO control and maximum response was defined as cAMP stimulation produced by an internal agonist control. Standard cAMP concentrations were assayed concurrently for conversion of fluorescence signal to cAMP level. The data was analyzed using 4-parameter curve fit in Microsoft Excel
Measurement of GPR119 Signaling Using a Cyclic AMP (cAMP) Homogenous Time Resolved Fluorescence (HTRF) Assay
Chinese hamster ovary (CHO) cell lines stably transfected with the permissive guanine nucleotide binding protein alpha 15 (Gα15) and murine GPR119 were maintained in DMEM media containing FBS, penicillin-streptomycin, puromycin, and G418 (geneticin). […] Agonist activation of the GPR119 receptor was measured in receptor transfected cells described above, treated with compounds of this invention, using a commercial homogenous time resolved fluorescence (HTRF) kit for measurement of cAMP (CisBio, Bedford, Mass.). The assay was performed in 96-well half-volume plates (murine) or 384-well plates (human) following the manufacturers instructions. Briefly, suspended cells were incubated with a dose titration of test compound at room temperature for 60 min, lysed, and incubated with HTRF reagents for an additional 60 min. The plate was read using an Envision multilabel reader (Perkin Elmer) adjusted to read time resolved fluorescence and the cAMP concentrations were extrapolated from a cAMP calibration curve. […] The concentration of test compound required to stimulate a half-maximal response (EC50), and efficacy as compared to an internal agonist control, was determined from a sigmoidal 4-parameter curve fit of the resulting plot of normalized activity versus compound concentration.

CC1(NC(=O)Cc2ccc(OCC[C@@H]3C[C@@H]3C3CCN(c4ncc(Cl)cn4)CC3)cc2F)CCCC1 [Example 94] and CC1(CNC(=O)Cc2ccc(OCC[C@@H]3C[C@@H]3C3CCN(c4ncc(Cl)cn4)CC3)cc2F)CCC1 [Example 96] are within 1.5-fold of each other in EC50: 6.5 nM for the first, 5.1 nM for the second.

O=C(Cc1ccc(OCC[C@@H]2C[C@@H]2C2CCN(c3ncc(Cl)cn3)CC2)cc1F)NC1CCC(F)(F)C1 (stereo partly drawn) [Example 95] and O=C(Cc1ccc(OCC[C@@H]2C[C@@H]2C2CCN(c3ncc(Cl)cn3)CC2)cc1F)NC1CCCC1F (stereo partly drawn) [Example 111] are within 1.5-fold of each other in EC50: 2.3 nM for the first, 3 nM for the second.

Compared with CC1(C)CCN1C(=O)Cc1ccc(OCC[C@@H]2C[C@@H]2C2CCN(c3ncc(Cl)cn3)CC2)cc1F [Example 97], C[C@H]1CCCN1C(=O)Cc1ccc(OCC[C@@H]2C[C@@H]2C2CCN(c3ncc(Cl)cn3)CC2)cc1F [Example 117] is 1.9-fold lower in EC50: 3.2 nM for the first, 1.7 nM for the second. The second is the more potent here.

Compared with CCN(CC)C(=O)Cc1ccc(OCC[C@@H]2C[C@@H]2C2CCN(c3ncc(Cl)cn3)CC2)cc1F [Example 98], CCN(C(=O)Cc1ccc(OCC[C@@H]2C[C@@H]2C2CCN(c3ncc(Cl)cn3)CC2)cc1F)C(C)C [Example 102] is 3.1-fold lower in EC50: 9.2 nM for the first, 3 nM for the second.

Going from CC1CCN(C(=O)Cc2ccc(OCC[C@@H]3C[C@@H]3C3CCN(c4ncc(Cl)cn4)CC3)cc2F)CC1 [Example 99] to O=C(Cc1ccc(OCC[C@@H]2C[C@@H]2C2CCN(c3ncc(Cl)cn3)CC2)cc1F)N1CCCC1CO (stereo partly drawn) [Example 108], the EC50 falls from 4 nM to 2.5 nM (1.6-fold).

Going from CCC(C)NC(=O)Cc1ccc(OCC[C@@H]2C[C@@H]2C2CCN(c3ncc(Cl)cn3)CC2)cc1F (stereo partly drawn) [Example 100] to C[C@H](CO)NC(=O)Cc1ccc(OCC[C@@H]2C[C@@H]2C2CCN(c3ncc(Cl)cn3)CC2)cc1F [Example 113], the EC50 rises from 1.8 nM to 3.9 nM (2.2-fold).

Compared with O=C(Cc1ccc(OCC[C@@H]2C[C@@H]2C2CCN(c3ncc(Cl)cn3)CC2)cc1F)NCC1(O)CC1 [Example 101], CC(F)(F)CNC(=O)Cc1ccc(OCC[C@@H]2C[C@@H]2C2CCN(c3ncc(Cl)cn3)CC2)cc1F [Example 105] is 3.5-fold lower in EC50: 5.2 nM for the first, 1.5 nM for the second.

Going from CC[C@@H](CO)NC(=O)Cc1ccc(OCC[C@@H]2C[C@@H]2C2CCN(c3ncc(Cl)cn3)CC2)cc1F [Example 103] to CCC(CO)NC(=O)Cc1ccc(OCC[C@@H]2C[C@@H]2C2CCN(c3ncc(Cl)cn3)CC2)cc1F (stereo partly drawn) [Example 114], the EC50 falls from 9.7 nM to 3.7 nM (2.6-fold). The second is the more potent here.

Going from COCCN(C)C(=O)Cc1ccc(OCC[C@@H]2C[C@@H]2C2CCN(c3ncc(Cl)cn3)CC2)cc1F [Example 104] to CC(C)CCN(C)C(=O)Cc1ccc(OCC[C@@H]2C[C@@H]2C2CCN(c3ncc(Cl)cn3)CC2)cc1F [Example 109], the EC50 rises from 1.3 nM to 10.3 nM (7.9-fold).

Going from NC(=O)C1CCN1C(=O)Cc1ccc(OCC[C@@H]2C[C@@H]2C2CCN(c3ncc(Cl)cn3)CC2)cc1F (stereo partly drawn) [Example 106] to COC(=O)C1CN1C(=O)Cc1ccc(OCC[C@@H]2C[C@@H]2C2CCN(c3ncc(Cl)cn3)CC2)cc1F (stereo partly drawn) [Example 107], the EC50 rises from 4.3 nM to 8.9 nM (2.1-fold).

First: O=C(Cc1ccc(OCC[C@@H]2C[C@@H]2C2CCN(c3ncc(Cl)cn3)CC2)cc1F)NC(C1CC1)C1CC1 [Example 110]
Second: CC(CO)NC(=O)Cc1ccc(OCC[C@@H]2C[C@@H]2C2CCN(c3ncc(Cl)cn3)CC2)cc1F (stereo partly drawn) [Example 116]
The EC50 of the first is 1.6-fold lower: 5.8 nM for the first, 9.2 nM for the second.

First: O=C(Cc1ccc(OCC[C@@H]2C[C@@H]2C2CCN(c3ncc(Cl)cn3)CC2)cc1F)NCC1CCCCC1 [Example 112]
Second: COC(=O)C1CN(C(=O)Cc2ccc(OCC[C@@H]3C[C@@H]3C3CCN(c4ncc(Cl)cn4)CC3)cc2F)C1 [Example 115]
The EC50 of the first is 2.8-fold higher: 6.1 nM for the first, 2.2 nM for the second. The second is the more potent here.

O=C(Cc1ccc(OCC[C@@H]2C[C@@H]2C2CCN(c3ncc(Cl)cn3)CC2)cc1F)N1CC(n2ccnc2)C1 [Example 118] and O=C(Cc1ccc(OCC[C@@H]2C[C@@H]2C2CCN(c3ncc(Cl)cn3)CC2)cc1F)N1CC(n2cccn2)C1 [Example 119] are within 1.5-fold of each other in EC50: 1.1 nM for the first, 0.81 nM for the second.

Compared with O=C(Cc1ccc(OCC[C@@H]2C[C@@H]2C2CCN(c3ncc(Cl)cn3)CC2)cc1F)N1Cc2cn[nH]c2C1 [Example 120], O=C(Cc1ccc(OCC[C@@H]2C[C@@H]2C2CCN(c3ncc(Cl)cn3)CC2)cc1F)N1CCc2[nH]ncc2C1 [Example 139] is 2-fold higher in EC50: 1 nM for the first, 2 nM for the second.

Going from Cc1nc2c([nH]1)CN(C(=O)Cc1ccc(OCC[C@@H]3C[C@@H]3C3CCN(c4ncc(Cl)cn4)CC3)cc1F)C2 [Example 121] to Cc1nc2c(o1)CCN(C(=O)Cc1ccc(OCC[C@@H]3C[C@@H]3C3CCN(c4ncc(Cl)cn4)CC3)cc1F)C2 [Example 136], the EC50 falls from 2.2 nM to 0.73 nM (3-fold).

O=C(Cc1ccc(OCC[C@@H]2C[C@@H]2C2CCN(c3ncc(Cl)cn3)CC2)cc1F)N1CC(c2cccnc2)C1 [Example 122] and O=C(Cc1ccc(OCC[C@@H]2C[C@@H]2C2CCN(c3ncc(Cl)cn3)CC2)cc1F)N1Cc2cccnc2C1 [Example 123] are within 1.5-fold of each other in EC50: 0.66 nM for the first, 0.78 nM for the second.

Going from CC(C)(O)Cn1cc2c(n1)CN(C(=O)Cc1ccc(OCC[C@@H]3C[C@@H]3C3CCN(c4ncc(Cl)cn4)CC3)cc1F)C2 [Example 124] to Cn1ccc2c1CCN(C(=O)Cc1ccc(OCC[C@@H]3C[C@@H]3C3CCN(c4ncc(Cl)cn4)CC3)cc1F)C2 [Example 145], the EC50 rises from 3.2 nM to 6.3 nM (2-fold).

O=C(Cc1ccc(OCC[C@@H]2C[C@@H]2C2CCN(c3ncc(Cl)cn3)CC2)cc1F)N1CCc2nccnc2C1 [Example 125] and O=C(Cc1ccc(OCC[C@@H]2C[C@@H]2C2CCN(c3ncc(Cl)cn3)CC2)cc1F)N1CCc2cccnc2C1 [Example 130] are within 1.5-fold of each other in EC50: 0.96 nM for the first, 1.1 nM for the second.

Going from O=C(Cc1ccc(OCC[C@@H]2C[C@@H]2C2CCN(c3ncc(Cl)cn3)CC2)cc1F)N1CCc2ncncc2C1 [Example 127] to O=C(Cc1ccc(OCC[C@@H]2C[C@@H]2C2CCN(c3ncc(Cl)cn3)CC2)cc1F)N1CCc2cncnc2C1 [Example 129], the EC50 falls from 1.5 nM to 0.29 nM (5.2-fold).

O=C(Cc1ccc(OCC[C@@H]2C[C@@H]2C2CCN(c3ncc(Cl)cn3)CC2)cc1F)N1CCc2ccncc2C1 [Example 128] and Cc1n[nH]c2c1CN(C(=O)Cc1ccc(OCC[C@@H]3C[C@@H]3C3CCN(c4ncc(Cl)cn4)CC3)cc1F)CC2 [Example 140] are within 1.5-fold of each other in EC50: 2.3 nM for the first, 3.2 nM for the second.

Going from O=C(Cc1ccc(OCC[C@@H]2C[C@@H]2C2CCN(c3ncc(Cl)cn3)CC2)cc1F)N1CCCc2ncccc21 [Example 131] to Cc1nc2c(o1)CN(C(=O)Cc1ccc(OCC[C@@H]3C[C@@H]3C3CCN(c4ncc(Cl)cn4)CC3)cc1F)CC2 [Example 141], the EC50 falls from 8 nM to 1.2 nM (6.7-fold).

Going from O=C(Cc1ccc(OCC[C@@H]2C[C@@H]2C2CCN(c3ncc(Cl)cn3)CC2)cc1F)N1CCn2cc(C(F)(F)F)nc2C1 [Example 132] to O=C(Cc1ccc(OCC[C@@H]2C[C@@H]2C2CCN(c3ncc(Cl)cn3)CC2)cc1F)N1CCn2nc(C(F)(F)F)nc2C1 [Example 134], the EC50 rises from 0.55 nM to 1 nM (1.8-fold). The first is the more potent here.

First: O=C(Cc1ccc(OCC[C@@H]2C[C@@H]2C2CCN(c3ncc(Cl)cn3)CC2)cc1F)N1CCn2c(nnc2C(F)(F)F)C1 [Example 133]
Second: COc1nnc2n1CCN(C(=O)Cc1ccc(OCC[C@@H]3C[C@@H]3C3CCN(c4ncc(Cl)cn4)CC3)cc1F)C2 [Example 137]
The EC50 of the first is 4.3-fold lower: 0.91 nM for the first, 3.9 nM for the second. The first is the more potent here.

Going from O=C(Cc1ccc(OCC[C@@H]2C[C@@H]2C2CCN(c3ncc(Cl)cn3)CC2)cc1F)N1CCn2ncnc2C1 [Example 135] to O=C(Cc1ccc(OCC[C@@H]2C[C@@H]2C2CCN(c3ncc(Cl)cn3)CC2)cc1F)N1CCn2cnnc2C1 [Example 138], the EC50 rises from 0.54 nM to 1.5 nM (2.8-fold).

Going from O=C(Cc1ccc(OCC[C@@H]2C[C@@H]2C2CCN(c3ncc(Cl)cn3)CC2)cc1F)N1CCc2c(C3CC3)n[nH]c2C1 [Example 142] to O=C(Cc1ccc(OCC[C@@H]2C[C@@H]2C2CCN(c3ncc(Cl)cn3)CC2)cc1F)N1CCc2oc(C3CC3)nc2C1 [Example 143], the EC50 rises from 3.1 nM to 4.7 nM (1.5-fold). The first is the more potent here.

In the case of O=C(c1cn2c(n1)CN(C(=O)Cc1ccc(OCC[C@@H]3C[C@@H]3C3CCN(c4ncc(Cl)cn4)CC3)cc1F)CC2)C1CC1 [Example 144], the EC50 is reported as 7.2 nM.
